PMC8569681, “New Pyrimidine and Pyridine Derivatives as Multitarget Cholinesterase Inhibitors: Design, Synthesis, and In Vitro and In Cellulo Evaluation” (ACS Chemical Neuroscience, 2021)
Entries after “also recorded” stand apart in the source; their conditions may differ.

Columns and labels:
[1] = target: T1, Electrophorus electricus AChE (EeAChE) (Electrophorus electricus, UniProt O42275); assay: Inhibition constant and mechanism vs EeAChE, Dixon's method; assay type: biochemical; settings: for inhibition mechanism on EeAChE: Dixon's plot, best fitting model; for α, EeAChE: mixed inhibition, α > 1 free enzyme, α < 1 enzyme–substrate complex; for Ki: three substrate and five inhibitor concentrations, read-out: Ki ± SD, EeAChE
T1 construct: purchased Sigma-Aldrich (Milan, Italy)
T1 sequence (O42275 24-633): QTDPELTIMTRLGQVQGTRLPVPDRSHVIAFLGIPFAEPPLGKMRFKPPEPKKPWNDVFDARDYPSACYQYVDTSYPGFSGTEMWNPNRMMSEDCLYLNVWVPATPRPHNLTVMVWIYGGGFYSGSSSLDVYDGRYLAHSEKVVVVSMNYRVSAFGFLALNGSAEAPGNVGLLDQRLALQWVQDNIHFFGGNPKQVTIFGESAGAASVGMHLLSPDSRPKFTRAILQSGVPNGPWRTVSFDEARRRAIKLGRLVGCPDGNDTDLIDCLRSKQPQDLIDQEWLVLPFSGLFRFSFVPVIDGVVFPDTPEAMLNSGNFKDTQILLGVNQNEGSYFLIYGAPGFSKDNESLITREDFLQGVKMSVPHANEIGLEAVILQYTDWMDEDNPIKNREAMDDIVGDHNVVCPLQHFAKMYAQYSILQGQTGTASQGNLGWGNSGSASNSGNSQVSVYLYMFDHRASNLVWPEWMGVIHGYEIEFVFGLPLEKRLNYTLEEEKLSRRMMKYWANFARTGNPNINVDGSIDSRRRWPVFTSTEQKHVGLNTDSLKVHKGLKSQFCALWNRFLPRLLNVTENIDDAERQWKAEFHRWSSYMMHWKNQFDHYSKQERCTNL
Protocol: . The recorded data were analyzed with the enzyme kinetic module of SigmaPlot to find the best fitting model of inhibition using the linear regression analysis. The reference kinetic models used in the regression analysis were competitive, noncompetitive, uncompetitive, and mixed. Each determination was repeated five times, and incorrect values were discarded to reduce the standard deviation within the limit of 5%. In this way, the regression lines obtained have a linear regression coefficient (R^2) higher than 0.95. Dixon’s plots of all tested compounds are reported in the Supporting Information (Figures S1–S12).
18, 22, 25, 26, 28, and 30 toward eqBChE). For each compound, a 500 μM stock solution was prepared in H2O/DMSO or in 10^–2 M HCl and diluted in water to prepare solutions of opportune concentrations to introduce in the cuvette volumes ranging from 30 to 100 μL, to obtain the desired final concentrations. The maximum amount of DMSO used for the preparation of the stock solution was calculated to have a DMSO content in cuvette <0.033%.
Three milliliters of 0.1 M phosphate buffer (pH = 7.4) containing DTNB (0.25 mM) and EeAChE (0.083 UmL^–1) or eqBChE (0.083 UmL^–1) was mixed with the opportune volume of the inhibitor solution to obtain a final inhibitor concentration in cuvette between 90 and 1800 nM. With this solution, the blank was made. […]. The absorbance variations were measured at 412 nm at 25 °C between 0.5 and 1.5 min.
To determine the inhibition constants (Ki) and the inhibition mechanisms, the rates of hydrolysis at three different concentrations of substrate in the presence of five different concentrations of inhibitor were measured.

Aβ42 peptide = target: T2, Aβ42 peptide (Homo sapiens, UniProt P05067); assay: Inhibition of Aβ42 aggregation in intact E. coli cells, thioflavin-S; assay type: cell-based, Escherichia coli; settings: [I] = 100 μM
T2 construct: expressed in transfected cells; host or cells: E. coli BL21 (DE3), pET28a
T2 sequence (P05067 672-713 limits assumed): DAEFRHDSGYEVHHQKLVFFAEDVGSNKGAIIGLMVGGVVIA
Protocol: (§1) The anti-aggregating effect of the tested compounds was monitored by a cell-based assay in intact Escherichia coli cells that overexpress either the Aβ42 peptide or tau protein, which upon overexpression form insoluble inclusion bodies that were stained with thioflavin-S, an amyloid specific dye.[36] The percentages of inhibition toward Aβ42 and tau aggregation were determined at an inhibitor concentration of 100 μM, and the obtained results are reported in Table 7.
E. coli competent cells BL21 (DE3) were transformed with the pET28a vector (Novagen, Inc., Madison, WI, USA) carrying the DNA sequence of Aβ42. Because of the addition of the initiation codon ATG in front of both genes, the overexpressed peptide contains an additional methionine residue at its N terminus. For overnight culture preparation, an amount of 10 mL of the M9 minimal medium containing 50 μg·mL^–1 of kanamycin was inoculated with a colony of BL21 (DE3) bearing the plasmid to be expressed at 37 °C. For expression of the Aβ42 peptide, the required volume of overnight culture to obtain 1:500 dilution was added into the fresh M9 minimal medium containing 50 μg·mL^–1 of kanamycin and 250 μM Th-S. The bacterial culture was grown at 37 °C and 250 rpm. When the cell density reached OD600 = 0.6, an amount of 980 μL of culture was transferred into Eppendorf tubes of 1.5 mL with 10 μL of each compound to be tested in DMSO and 10 μL of isopropyl 1-thio-β-D-galactopyranoside (IPTG) at 100 mM. The final concentration of the drug was fixed at 100 μM. The samples were grown overnight at 37 °C and 1400 rpm using a ThermoMixer (Eppendorf, Hamburg, Germany). As negative control (maximal amyloid presence), the same amount of DMSO without the drug was added in the sample. In parallel, non-induced samples (in the absence of IPTG) were also prepared and used as positive controls (non-amyloid presence). In addition, these samples were used to assess the potential intrinsic toxicity of the compounds and to confirm the correct bacterial growth.
(§2) Th-S (T1892) and other chemical reagents were purchased from Sigma (St. Louis, MO). The Th-S stock solution ([…]) was prepared in double-distilled water purified through a Milli-Q system (Millipore, USA). Th-S fluorescence and absorbance were tracked using a DTX 800 plate reader Multimode Detector equipped with a Multimode Analysis Software (Beckman-Coulter, USA). Filters of 430/35 and 485/20 nm were used for the excitation and emission wavelengths, respectively. Filters of 535/25 nm were also used for the absorbance determination. To normalize the Th-S fluorescence as a function of the bacterial concentration, OD600 was obtained using a Shimadzu UV-2401 PC UV–vis spectrophotometer (Shimadzu, Japan). Note that the fluorescence normalization was carried out considering as 100% the Th-S fluorescence of the bacterial cells expressing the peptide or protein in the absence of drug and 0% the Th-S fluorescence of the bacterial cells not expressing the peptide or protein. A minimum of five independent assays (with three replicates for assay) was performed for each tested compound. More assays were performed to obtain a SEM < 5% with a maximum of 10 independent assays.

tau protein = target: T3, tau protein (Homo sapiens, UniProt P10636); assay: Inhibition of tau aggregation in intact E. coli cells, thioflavin-S; assay type: cell-based, Escherichia coli; settings: [I] = 100 μM
T3 construct: expressed in transfected cells; host or cells: E. coli BL21 (DE3) with pTARA and pRKT42
T3 sequence (P10636 1-441 isoform P10636-8): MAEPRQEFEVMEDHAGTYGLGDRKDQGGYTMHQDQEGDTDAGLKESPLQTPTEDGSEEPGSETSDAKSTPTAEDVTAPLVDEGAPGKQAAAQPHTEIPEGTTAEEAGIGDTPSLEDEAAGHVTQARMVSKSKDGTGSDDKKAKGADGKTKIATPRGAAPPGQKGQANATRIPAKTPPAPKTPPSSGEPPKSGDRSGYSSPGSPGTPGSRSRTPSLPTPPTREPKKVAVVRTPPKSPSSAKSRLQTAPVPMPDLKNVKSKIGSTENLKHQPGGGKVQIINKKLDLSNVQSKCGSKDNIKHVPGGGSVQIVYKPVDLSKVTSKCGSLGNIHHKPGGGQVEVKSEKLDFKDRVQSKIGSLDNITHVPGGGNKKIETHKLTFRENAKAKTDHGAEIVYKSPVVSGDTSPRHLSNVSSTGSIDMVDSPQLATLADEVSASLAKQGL
Protocol: as §1
E. coli BL21 (DE3) competent cells were transformed with pTARA containing the RNA-polymerase gene of T7 phage (T7RP) under the control of the promoter PBAD. E. coli BL21 (DE3) with pTARA competent cells were transformed with the pRKT42 vector encoding four repeats of the tau protein in two inserts. For overnight culture preparation, 10 mL of the M9 medium containing 0.5% of glucose, 50 μg·mL^–1 of ampicillin, and 12.5 μg·mL^–1 of chloramphenicol was inoculated with a colony of BL21 (DE3) bearing the plasmids to be expressed at 37 °C. For expression of the tau protein, the required volume of overnight culture to obtain 1:500 dilution was added to the fresh M9 minimal medium containing 0.5% of glucose, 50 μg·mL^–1 of ampicillin, 12.5 μg·mL^–1 of chloramphenicol, and 250 μM Th-S. The bacterial culture was grown at 37 °C and 250 rpm. When the cell density reached OD600 = 0.6, an amount of 980 μL of culture was transferred into Eppendorf tubes of 1.5 mL with 10 μL of each compound to be tested in DMSO and 10 μL of arabinose at 25%. The final concentration of the drug was fixed at 100 μM. The samples were grown overnight at 37 °C and 1400 rpm using a ThermoMixer (Eppendorf, Hamburg, Germany). As negative control (maximal presence of tau), the same amount of DMSO without the drug was added in the sample. In parallel, non-induced samples (in the absence of arabinose) were also prepared and used as positive controls (absence of tau). In addition, these samples were used to assess the potential intrinsic toxicity of the compounds and to confirm the correct bacterial growth.
as §2

SMILES | inhibition mechanism on EeAChE [1] | α, EeAChE [1] | Ki [1] [nM] | inhibition at 100 µM (Aβ42 peptide) [%] | inhibition at 100 µM (tau protein) [%]
c1ccc(CNCCCCCNc2ncccn2)cc1 [Compound 9, N^1-Benzyl-N^5-(pyrimidin-2-yl)pentane-1,5-diamine] | mixed | 7.5 | 312 ± 108 | 5.8 | 2.6
c1ccc(CNCCCCCCNc2ncccn2)cc1 [Compound 13, N^1-Benzyl-N^6-(pyrimidin-2-yl)hexane-1,6-diamine] | mixed | 0.3 | 426 ± 132 | 21 | 12.6
COc1cc(CNCCCCCCNc2ncccn2)ccc1O [Compound 18, 2-Methoxy-4-(((6-(pyrimidin-2-ylamino)hexyl)amino)methyl)phenol] | – | – | – | 1.7 | 1
Oc1cccc(CNCCCCCCNc2ncccn2)c1 [Compound 19, 3-(((6-(Pyrimidin-2-ylamino)hexyl)amino)methyl)phenol] | uncompetitive; also recorded: uncomp | – | 509 ± 18 | 16.7 | 9.9
Oc1cccc(CNCCCCCCNc2ncccn2)c1O [Compound 20, 3-(((6-(Pyrimidin-2-ylamino)hexyl)amino)methyl)benzene-1,2-diol] | – | – | – | 7.2 | 4.6
c1cnc(NCCCCCCNCc2c[nH]c3ccccc23)nc1 [Compound 22, N^1-((1H-Indol-3-yl)methyl)-N^6-(pyrimidin-2-yl)hexane-1,6-diamine] | – | – | – | 9.7 | 6.8
c1ccc(CNCCCCCNc2ccccn2)cc1 [Compound 23, N^1-Benzyl-N^5-(pyridin-2-yl)pentane-1,5-diamine] | mixed | 2.2 | 743 ± 316 | 10.4 | 7
c1ccc(CNCCCCCCNc2ccccn2)cc1 [Compound 25, N^1-Benzyl-N^6-(pyridin-2-yl)hexane-1,6-diamine] | mixed | 0.8 | 995 ± 374 | 16.8 | 6.7
Brc1ccc(CNCCCCCCNc2ccccn2)cc1 [Compound 26, N^1-(4-Bromobenzyl)-N^6-(pyridin-2-yl)hexane-1,6-diamine] | – | – | – | 7.3 | 7.3
COc1ccccc1CNCCCCCCNc1ccccn1 [Compound 28, N^1-(2-Methoxybenzyl)-N^6-(pyridin-2-yl)hexane-1,6-diamine] | mixed | 1.2 | 1320 ± 622 | 22.3 | 17
COc1cc(CNCCCCCCNc2ccccn2)ccc1O [Compound 30, 2-Methoxy-4-(((6-(pyridin-2-ylamino)hexyl)amino)methyl)phenol] | – | – | – | 13.6 | 12.8
